From PubChem BioAssay (NCI)
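How tested: cells in 96-well plates exposed to compound for 48 hours at five concentrations. GI50 = concentration required for 50% inhibition of growth. TGI denotes the concentration required for complete inhibition of growth.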

Tests used:
Experiment in all cases: NCI tumour cell line growth inhibition, 48 h
A549 NSCLC = tested on: A549 NSCLC
CAKI-1 renal = tested on: CAKI-1 renal
HCC-2998 colon = tested on: HCC-2998 colon
HL-60(TB) leukemia = tested on: HL-60(TB) leukemia
OVCAR-5 ovarian = tested on: OVCAR-5 ovarian
RPMI-8226 leukemia = tested on: RPMI-8226 leukemia
RXF 393 renal = tested on: RXF 393 renal
SK-MEL-28 melanoma = tested on: SK-MEL-28 melanoma
SK-MEL-5 melanoma = tested on: SK-MEL-5 melanoma
TK-10 renal = tested on: TK-10 renal

Row | Compound | GI50 (A549 NSCLC) [µM] | TGI (A549 NSCLC) [µM] | GI50 (CAKI-1 renal) [µM] | TGI (CAKI-1 renal) [µM] | GI50 (HCC-2998 colon) [µM] | TGI (HCC-2998 colon) [µM] | GI50 (HL-60(TB) leukemia) [µM] | TGI (HL-60(TB) leukemia) [µM] | GI50 (OVCAR-5 ovarian) [µM] | TGI (OVCAR-5 ovarian) [µM] | GI50 (RPMI-8226 leukemia) [µM] | TGI (RPMI-8226 leukemia) [µM] | GI50 (RXF 393 renal) [µM] | TGI (RXF 393 renal) [µM] | GI50 (SK-MEL-28 melanoma) [µM] | TGI (SK-MEL-28 melanoma) [µM] | GI50 (SK-MEL-5 melanoma) [µM] | TGI (SK-MEL-5 melanoma) [µM] | GI50 (TK-10 renal) [µM] | TGI (TK-10 renal) [µM]
1 | O=C(Nc1ccc2c(c1)OCCO2)C(=O)c1c[nH]c2ccccc12 | 1.18 | > 100 | 1.68 | > 100 | 1.37 | > 100 | 1.21 | > 32.9 | 3.47 | > 100 | 2.34 | > 100 | 2.59 | 11.1 | 5.6 | > 100 | 1.47 | > 100 | 6.75 | 31.4
2 | CC(C)=C1CCC(CN2CCOCC2)C1=O (stereo not given) | – | 43.1 | – | 0.908 | – | 29.3 | – | 14 | – | 32.5 | – | 12.5 | – | 5.47 | – | 29.1 | – | 30.7 | – | 19
3 | Nc1ccc(-c2ccc3ncc4ccc(=O)n(-c5cccc(C(F)(F)F)c5)c4c3c2)cn1 | < 0.01 | 2.6 | < 0.01 | 1.55 | < 0.0118 | 1.6 | 0.0408 | 8.66 | < 0.0145 | 31.5 | < 0.01 | 0.241 | < 0.01 | 0.0443 | < 0.01 | 11.5 | < 0.01 | 0.0767 | < 0.016 | 0.275
4 | COc1cccc2nc3c(C(=O)NCCN(C)C)cccc3nc12 | – | > 100 | – | > 100 | – | 36.3 | – | 17.5 | – | 42.4 | – | > 63.8 | – | 26.7 | – | 28.8 | – | 36.8 | – | 61
5 | C/C(O)=C(\N=O)C(=O)NCc1ccccc1 | – | > 100 | – | > 100 | – | > 100 | – | > 100 | – | > 100 | – | > 100 | – | > 100 | – | > 100 | – | > 100 | – | > 100
6 | O=C(Oc1ccccc1)C(Br)C(Br)c1ccccc1 (stereo not given) | 18 | 38.5 | 1.65 | 3.06 | 11.8 | 24.7 | 3.13 | 15.9 | 7 | 20.8 | 2.75 | 7.9 | 1.74 | 3.23 | 2.64 | 7.11 | 13.1 | 25.8 | 2.19 | 4.95
7 | CC(C)C(=S)N(C)O | – | > 100 | – | > 100 | – | > 100 | – | > 24.2 | – | > 100 | – | > 52.6 | – | > 100 | – | > 100 | – | > 77.7 | – | > 91.4
8 | CN1CCN(CCCOc2cccc3nc(Nc4ccc(F)c(F)c4)ccc23)CC1 | 3.5 | 8.15 | 4.45 | 9.35 | 4.56 | 9.08 | 5.18 | 11 | 4.71 | 9.73 | 5.2 | 12.3 | 2.11 | 6.57 | 1.08 | 3.63 | 4.44 | 8.69 | 2.63 | 6.94
